Several values for one entry are separate records, joined by “and”; a condition that tells them apart may be missing. Equal entries are not always repeated.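 All cell lines were grown in 96-well plates and treated with compound for 48 hours. GI50: concentration for 50% inhibition of growth. TGI is the concentration that stops growth completely.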

Test systems include SK-OV-3 ovarian; SNB-19 CNS; SR leukemia; 786-0 renal; HOP-62 NSCLC; MCF7 breast; BT-549 breast; EKVX NSCLC; HCT-15 colon; SF-295 CNS.
Holding throughout (assay): NCI tumour cell line growth inhibition, 48 h

As for `CCN(CC)CCCNc1cc(OC)c(OC)c2cccnc12`, the GI50 in the assay on SK-OV-3 ovarian is 9.37 µM; with SNB-19 CNS it was 13.1 µM; in the assay with SR leukemia, 1.22 µM; in the assay on 786-0 renal, 12 µM; in the assay on HOP-62 NSCLC it was 2.04 µM; with MCF7 breast, 1.71 µM. Further, the GI50 in the assay on BT-549 breast was 18.6 µM; with EKVX NSCLC, 16.4 µM; in the assay with HCT-15 colon, 14.1 µM; with SF-295 CNS, 7.74 µM. For the same compound, the TGI is 44.9 µM in the assay with SK-OV-3 ovarian; 45 µM in the assay with SNB-19 CNS; over 100 µM in the assay on SR leukemia; 31.3 µM in the assay on 786-0 renal; 21.4 µM in the assay with HOP-62 NSCLC; 5.47 µM with MCF7 breast. The TGI is 36.5 µM in the assay on BT-549 breast, 54.8 µM in the assay with EKVX NSCLC, 49.8 µM in the assay on HCT-15 colon and 33.1 µM in the assay on SF-295 CNS.

As for `CCOC(=O)CCSC1=CC(=O)c2nc3ccccc3c3ccnc1c23`, the GI50 with SK-OV-3 ovarian is 29.3 µM; in the assay on SNB-19 CNS it was 20.5 µM; with SR leukemia, 7.59 µM; with 786-0 renal, 17.5 µM; with HOP-62 NSCLC it was 16.4 µM; with MCF7 breast, 13.3 µM. The GI50 in the assay with BT-549 breast was 17.1 µM; in the assay on EKVX NSCLC, 29.4 µM; with HCT-15 colon, 24.8 µM; with SF-295 CNS, 17.1 µM. Further, the TGI in the assay on SK-OV-3 ovarian is 93.4 µM; in the assay on SNB-19 CNS, 51.6 µM; in the assay with SR leukemia it was over 100 µM; in the assay with 786-0 renal it was 39.3 µM; in the assay on HOP-62 NSCLC it was 47.7 µM; in the assay on MCF7 breast it was 38.3 µM. Moreover, the TGI with BT-549 breast was 34.3 µM; with EKVX NSCLC, 76.4 µM; in the assay on HCT-15 colon, 92.9 µM; with SF-295 CNS it was 44.3 µM.

As to `NC(Cc1c[nH]c2cccc(F)c12)C(=O)O` (stereo not drawn), the GI50 with SK-OV-3 ovarian is 518 µM; in the assay on SNB-19 CNS, 1120 µM; in the assay on 786-0 renal it was 124 µM; in the assay with MCF7 breast, 35.4 µM and 327 µM; with BT-549 breast, 151 µM; in the assay with EKVX NSCLC, 778 µM. The GI50 in the assay with HCT-15 colon is 61.6 µM and 266 µM; in the assay with SF-295 CNS, 39.5 µM and 176 µM. The TGI was over 4500 µM in the assay on SK-OV-3 ovarian; over 4500 µM in the assay with SNB-19 CNS; over 4500 µM in the assay on SR leukemia; 894 µM in the assay with 786-0 renal; 3180 µM in the assay with HOP-62 NSCLC; 1650 µM with MCF7 breast. The TGI was 873 µM in the assay on BT-549 breast, over 4500 µM in the assay on EKVX NSCLC, 2870 µM with HCT-15 colon and 1190 µM with SF-295 CNS.

Regarding `CCS(=O)(=O)N1CCN(c2ccc(Nc3ncc(C(N)=O)c(NC4CC4)n3)cc2)CC1`, the GI50 with SK-OV-3 ovarian is 7.93 µM; in the assay with SNB-19 CNS it was 38 µM; with SR leukemia, 2.78 µM; in the assay on 786-0 renal, 5.31 µM; in the assay on HOP-62 NSCLC it was 3.51 µM; in the assay on MCF7 breast, 4.77 µM. The GI50 is 3.19 µM in the assay on BT-549 breast, 63 µM in the assay with EKVX NSCLC, 2.64 µM in the assay on HCT-15 colon and 5.01 µM in the assay with SF-295 CNS. The TGI was 26.3 µM in the assay on SK-OV-3 ovarian; over 100 µM with SNB-19 CNS; 23.4 µM with SR leukemia; over 100 µM with 786-0 renal; 29.7 µM in the assay on HOP-62 NSCLC; over 100 µM with MCF7 breast. Also, the TGI is 11.3 µM in the assay on BT-549 breast, over 100 µM in the assay with EKVX NSCLC, 27.1 µM in the assay with HCT-15 colon and 94.3 µM in the assay with SF-295 CNS.

Consider `O=C(COc1cccc(/C=C2\Oc3ccc4ccccc4c3C2=O)c1)c1ccc([N+](=O)[O-])cc1`, for which the GI50 in the assay on SK-OV-3 ovarian is 64.2 µM; with SNB-19 CNS it was 34.1 µM; in the assay with SR leukemia it was 0.305 µM; in the assay on 786-0 renal it was 23.6 µM; with HOP-62 NSCLC it was 38.5 µM; in the assay on MCF7 breast it was 11.1 µM. Also, the GI50 is 17.3 µM in the assay on BT-549 breast, over 100 µM with EKVX NSCLC, 12.3 µM in the assay with HCT-15 colon and 57.4 µM in the assay on SF-295 CNS. Also, the TGI is over 100 µM with SK-OV-3 ovarian; over 100 µM with SNB-19 CNS; over 100 µM in the assay on SR leukemia; 62.3 µM in the assay on 786-0 renal; over 100 µM in the assay on HOP-62 NSCLC; 28.6 µM in the assay with MCF7 breast. Moreover, the TGI in the assay on BT-549 breast was 37.6 µM; in the assay on EKVX NSCLC it was over 100 µM; in the assay with HCT-15 colon, 30.9 µM; in the assay on SF-295 CNS it was over 100 µM.

`CC(=O)O[C@H]1CC[C@]2(C)C3C(=O)C[C@]4(C)[C@@H](C(C)CCC(=O)O)CC[C@@]4(C)[C@@H]3CC[C@H]2C1(C)C` (stereo partly drawn): the GI50 in the assay on SK-OV-3 ovarian is 21.4 µM; in the assay with SNB-19 CNS it was 21 µM; in the assay on SR leukemia, 16.6 µM; in the assay on 786-0 renal, 20.7 µM; in the assay on HOP-62 NSCLC, 27.2 µM; in the assay on MCF7 breast, 20.7 µM. Further, the GI50 with BT-549 breast was 17 µM; in the assay on EKVX NSCLC, 10.2 µM; with HCT-15 colon it was 11.7 µM; with SF-295 CNS it was 17.9 µM. The TGI with SK-OV-3 ovarian, with SNB-19 CNS, with SR leukemia, with 786-0 renal, in the assay on HOP-62 NSCLC and in the assay on MCF7 breast was over 50 µM in each case. Moreover, the TGI in the assay on BT-549 breast was 39.4 µM; in the assay with EKVX NSCLC it was 36.8 µM; with HCT-15 colon it was 46.9 µM; in the assay with SF-295 CNS, over 50 µM.

For the compound `CC1(C)CN(CCNc2nccc(-c3c(-c4cccc(O)c4)nc4sccn34)n2)S(=O)(=O)N1`, the GI50 with SK-OV-3 ovarian is 7.86 µM; in the assay on SNB-19 CNS, over 33.2 µM; with SR leukemia it was 3.34 µM; in the assay on 786-0 renal, 11.2 µM; in the assay with HOP-62 NSCLC, 32.7 µM; in the assay on MCF7 breast it was 9.66 µM. Also, the GI50 in the assay on BT-549 breast was over 22.5 µM; in the assay with EKVX NSCLC, over 33.2 µM; with HCT-15 colon, 11.5 µM; in the assay with SF-295 CNS, 17.7 µM. Also, the TGI in the assay with SK-OV-3 ovarian, with SNB-19 CNS, with SR leukemia, in the assay with 786-0 renal, in the assay on HOP-62 NSCLC and with MCF7 breast was over 33.2 µM throughout. In addition, the TGI in the assay with BT-549 breast, in the assay on EKVX NSCLC, in the assay with HCT-15 colon and in the assay with SF-295 CNS was over 33.2 µM in each case.

For `C/C(=N\NC(=S)N1CCN(c2ccccn2)CC1)c1cccc2cccnc12`, the TGI in the assay on SK-OV-3 ovarian is 43.5 µM; in the assay with SNB-19 CNS, over 100 µM; in the assay with SR leukemia it was over 38.7 µM; in the assay with 786-0 renal, over 100 µM; with HOP-62 NSCLC, over 100 µM; in the assay on MCF7 breast it was over 100 µM. Moreover, the TGI in the assay with BT-549 breast is over 100 µM; with EKVX NSCLC it was over 45.3 µM; in the assay on HCT-15 colon, over 100 µM; in the assay with SF-295 CNS it was 55.8 µM.

(Values after PubChem BioAssay (NCI).)
